Results published in PMC10005185, “Structure-guided engineering of a receptor-agonist pair for inducible activation of the ABA adaptive response to drought” (Science Advances, 2023).
Read-outs that look alike come from different tables or passages of the source.

How the values were obtained:
[1] = tested on: Arabidopsis thaliana plants (WT Col-0, CsPYL1^5m lines); test: Whole-plant gas exchange, stomatal conductance (Gs); assay type: in vivo
Procedure: A. thaliana seeds were planted in specific gas exchange pots, where above- and below-ground parts can be separated by glass into 2:1 (v:v) peat:vermiculite mixture. The plants were grown in growth chambers (Snijders Scientific, Drogenbos, Belgium) at 12/12 photoperiod, 23/18°C temperature, 160 μmol m^−2 s^−1 light, and 70% relative humidity and were 23 to 28 days old during gas exchange experiments. Whole-rosette stomatal conductances were recorded with an eight-chamber custom-built temperature-controlled gas exchange device as described before ([72]). Plants were inserted into the measurement cuvettes and allowed to stabilize at standard conditions: ambient CO2, ~420 ppm; air temperature, 24° ± 0.5°C; light, 160 μmol m^−2 s^−1; relative air humidity, 66 ± 3%. For sprayings, plants were removed from gas exchange cuvettes, sprayed with respective solutions, and put back into the cuvettes for stomatal conductance recordings for 56 min. To check the long-term effect of compounds on plants, stomatal conductance measurements were performed about 24 and 48 hours after sprayings. In the meantime, plants were kept in growth chambers as described above. Photographs of plants were taken after the experiment, and leaf rosette area was calculated using ImageJ 1.37v [National Institutes of Health (NIH), USA]. Stomatal conductance for water vapor was calculated with a custom-written program as described ([72]).

ΔNHAB1 with AtPYL1 = target: T1, ΔNHAB1 with AtPYL1 (Arabidopsis thaliana, UniProt Q8VZS8); test: PP2C inhibition assay, HAB1 with AtPYL1; assay type: biochemical; settings: read-out: inhibition of HAB1
T1 construct: His; made in house
T1 sequence (Q8VZS8 whole entry, stated change not applied): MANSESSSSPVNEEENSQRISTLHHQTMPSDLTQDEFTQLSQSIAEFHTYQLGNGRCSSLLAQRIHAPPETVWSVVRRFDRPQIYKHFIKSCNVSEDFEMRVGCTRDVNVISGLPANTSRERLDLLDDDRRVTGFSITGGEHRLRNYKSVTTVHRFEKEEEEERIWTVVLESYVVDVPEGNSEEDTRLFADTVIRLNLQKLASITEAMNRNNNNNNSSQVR
Procedure: (§1) His-tagged receptors and phosphatases were purified using nickel–nitrilotriacetic acid (Ni-NTA) affinity chromatography. Protein integrity was analyzed by SDS–polyacrylamide gel electrophoresis, followed by InstantBlue staining. Phosphatase activity was measured using p-Nitrophenyl Phosphate (pNPP) (25 mM) as substrate, 10 mM MnCl2,1 μM PP2C, and 2 μM of the indicated receptors. Proteins were incubated with the ligands for 10 min at room temperature. pNPP was then added to start the reactions, and the absorbance at 405 nm was monitored for 20 min in a ViktorX5 plate reader. Assays were repeated twice. For dose-response experiments, IC50 values were obtained with GraphPad Prism 9 using a nonlinear regression curve fit. Each ligand concentration was tested in triplicate. Phosphatase activity of ABI1 was measured using RRA(phosphoT)VA peptide as a substrate, as described ([27]).

[2] = tested on: Arabidopsis thaliana CsPYL1^5m plants; test: Drought resistance experiments; assay type: in vivo; settings: 50 μM
Procedure: For drought assays under long-day conditions, seeds from WT Col-0 and pAlligator2-35[…] plants were grown in MS medium for 7 days. Then, seedlings were transferred to individual 0.18-liter pots containing equal amount of moisted soil composed of peat, vermiculite, and perlite at 1:0.5:0.5 ratio (v/v). Plants were grown under long-day conditions in a controlled environment growth chamber at 22°C under 16-hour light/8-hour dark photoperiod under well-watered conditions for 3 weeks. Then, watering was withheld for 14 days. […] The first application was performed the same day the watering was withheld, and the second one was performed 7 days later. Watering was restored and survival rate was measured 6 days after […]. Gravimetric analysis of water loss in pots was performed along the experiment. […] Pots were weighted at 7-day intervals. Pictures of the plants were taken at the beginning of the experiment, 26 days after water deprivation and 12 days after […]. Survival rate and foliar leaf area were measured 12 days after […]. For drought experiments, 6 to 10 plants per genotype and treatment were analyzed in each experiment. The experiment was performed twice.

tomato plants = test: IR thermography of leaf temperature, tomato; assay type: in vivo, Solanum lycopersicum; settings: 10 μM
Procedure: For experiments using N. benthamiana or S. lycopersium, 1-month-old plants grown under long-day conditions (16-hour light/8-hour dark) were sprayed with 10 mM MES (pH 5.7) + 0.02% Silwet L77 supplemented with either 50 μM ABA, or the indicated concentration of iSB07/iSB09 or 0.1% DMSO as a mock-treated control. IR images were taken using a FLIR E95 thermocamera 1 day after the treatment (for N. benthamiana) or 2 and 5 days (for S. lycopersicum). Quantification was performed using the FLIR tools software on fully expanded leaves by analyzing 10 sections per leaf. At least six plants per genotype and treatment were analyzed in each experiment. Experiments were repeated twice. The average plant temperature ± SD of all the plants for each treatment and genotype was calculated and used to report the increase in temperature produced by each treatment. Statistical comparisons among genotypes were performed by either pairwise t tests or one-way ANOVA.
Fig. S6. QB lacks bioactivity in tomato whereas iSB09 is
(A) Quantification of the leaf temperature difference at 2 and 5 days after spraying tomato plants with 0.1 % DMSO
(mock- treated control), 10 µM iSB09 or 10 µM QB.
Asterisk indicates p<0.001 (Student’s t test). Values show individual points and average ± SD (n=4 replicates for mock and chemical treatments). (B) IR-images of representative tomato plants at 2 days after being treated with 0.1 % DMSO
Photographs were taken with white light (leaf panel) or infrared thermography (right panel) using the camera FLIR
HAB1 phosphatase activity in presence of PYL4. IC50 values for iSB09 or QB-dependent inhibition of HAB1 by AtPYL4. Values (average of duplicates) show PP2C activity after incubation with the indicated concentration of ligand and AtPYL4 at 1:2 ratio (1 µM phosphatase:2 µM receptor).
(1 picture or pasted object on this page, not shown here)

HAB1 with PYR1 = target: T2, HAB1 with PYR1 (Arabidopsis thaliana, UniProt O49686); test: PP2C inhibition assay, HAB1 with PYR1; assay type: biochemical; settings: 1 μM iSB09, PYR1
T2 construct: His; made in house
T2 sequence (O49686 whole entry): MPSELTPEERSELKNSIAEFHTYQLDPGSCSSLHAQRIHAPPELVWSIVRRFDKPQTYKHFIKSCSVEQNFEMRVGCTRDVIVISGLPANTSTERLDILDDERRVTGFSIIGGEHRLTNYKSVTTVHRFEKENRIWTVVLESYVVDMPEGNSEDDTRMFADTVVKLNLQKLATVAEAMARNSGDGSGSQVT
T2 sequence (Q9CAJ0 179-511 partner limits assumed): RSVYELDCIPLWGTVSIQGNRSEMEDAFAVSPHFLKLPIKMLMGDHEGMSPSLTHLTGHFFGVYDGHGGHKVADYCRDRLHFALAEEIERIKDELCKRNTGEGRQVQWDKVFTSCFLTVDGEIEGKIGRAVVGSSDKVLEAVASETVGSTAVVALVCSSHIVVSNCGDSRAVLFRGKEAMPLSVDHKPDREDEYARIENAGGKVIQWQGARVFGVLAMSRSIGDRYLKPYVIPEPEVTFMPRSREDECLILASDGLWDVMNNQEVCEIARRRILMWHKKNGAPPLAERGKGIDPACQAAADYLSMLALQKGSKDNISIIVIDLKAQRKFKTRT
Procedure: as §1

[3] = tested on: Arabidopsis thaliana seeds (WT Col-0, CsPYL1 and CsPYL1^5m lines); test: Seed germination assay; assay type: in vivo; settings: for IC50: Arabidopsis thaliana, read-out: Germination IC50
Procedure: For seed germination assays, seeds were stratified in the dark at 4°C for 3 days. Approximately 100 seeds of each genotype were sown on MS plates supplemented with six different ligand concentrations. The experiments were repeated three times. To score seed germination, radical emergence was analyzed at 24 hours after sowing.

Structure (SMILES): CCn1c(=O)cc(C)c2cc(CNS(=O)(=O)c3ccccc3)ccc21 [iSB09]
- effect on stomatal conductance (Gs) ([1]; WT, spraying with 5 μM): nonsignificant
- reduction of stomatal conductance (Gs) ([1]; WT, spraying with 20 μM): effective
- duration of the effect on Gs ([1]; transgenic lines, 5 μM): ≥ 48 h
- reduction of Gs 24 and 48 hours after spraying ([1]; transgenic lines, 5 μM): significantly evident
- inhibition at 1 µM (ΔNHAB1 with AtPYL1): 60 to 70%
- drought resistance compared to mock-treated plants ([2]; CsPYL1^5m plants, long-day conditions): markedly enhanced drought resistance
- soil water consumption ([2]; CsPYL1^5m plants, long-day, 10 days after stopping irrigation): 40%
- drought resistance compared to mock-treated plants ([2]; short-day conditions): enhanced resistance to drought
- bioactivity in tomato (leaf temperature) (tomato plants; 2 and 5 days after spraying): active
- persistence of the effect on leaf temperature after spraying (tomato plants; tomato): up to 5 days
- inhibition at 1 µM (HAB1 with PYR1): 60 to 70%
- IC50 ([3]; WT Col-0): 4.39 µM
- IC50 ([3]; line expressing CsPYL1): 1.35 µM
- IC50 ([3]; line expressing CsPYL1^5m): 0.29 µM
- inhibition of seed germination, iSB09 relative to iSB07 ([3]; plants expressing CsPYL1^5m): threefold more effective
